The test system of one assay is Zika virus. The experiment in a line: Functional CPE-based assay to measure dose dependent changes in antiviral-drug inhibitory efficacy against Zika virus MR766 in Vero E6 miRFP670 cells (cotreated with P-gp inhibitor, CP100356). Cells are treated with antiviral candidates that are serially diluted. EC50 is reported via analysis of MTS assay as a readout of CPE. The assay has been performed by KU Leuven. In kind it is organism-based, Chlorocebus sabaeus, Vero C1008. The settings on record: for EC90: P-gp concentration 500 nM, P-gp inhibitor CP100356.

For a further assay, the system named is dengue virus type 2. Nature of the assay: Functional assay to measure dose dependent changes in antiviral-drug inhibitory efficacy against Dengue virus type 2 New Guinea C in Vero E6 miRFP670 cells (cotreated with P-gp inhibitor, CP100356). Cells are treated with antiviral candidates that are serially diluted, following infection, cells are fixed. EC50 is reported via analysis of fluorescence intensity using high-content imager. The …. It counts as organism-based, Chlorocebus sabaeus, Vero C1008. Particulars: for EC90: P-gp concentration 500 nM, P-gp inhibitor CP100356.

As to `O=C(Nc1ccc2c(c1)CNC2)c1cc(F)cc2[nH]c(-c3cnc(C4CC4)o3)nc12`, the 90% effect concentration (EC90) is above 50 µM with Zika virus (Baseline response 0 %, Hill slope 1.364, Maximum measured 18.791 %, Maximum response 100 %, Minimum measured -1.808 %, R squared 0.107); above 50 µM in the assay on Zika virus (Zika virus, Vero C1008, Baseline response 0 %, Hill slope 2.704, Maximum measured 11.553 %, Maximum response 100 %, Minimum measured -5.923 %, R squared 0.137); 2.99 µM with dengue virus type 2 (Baseline response 0 %, EC90 CI (lower) 0.872 uM, EC90 CI (upper) 3.596 uM, Hill slope -8.389, Maximum measured 102.302 %, Maximum response 100 %, Minimum measured 7.049 %, R squared 0.894); 2.87 µM with dengue virus type 2 (Dengue virus, Vero C1008, Baseline response 0 %, EC90 CI (lower) 0.484 uM, EC90 CI (upper) 7.419 uM, Hill slope -10.584, Maximum measured 98.644 %, Maximum response 100 %, Minimum measured 4.286 %, R squared 0.843). For the same compound, the 50% effective concentration (EC50) was above 50 µM in the assay on Zika virus (Zika virus, Vero C1008); 2.33 µM in the assay on dengue virus type 2 (Dengue virus, Vero C1008); 2.3 µM with dengue virus type 2 (vero c1008).

For the compound `Cc1ncc(-c2cc(F)cc(C(=O)Nc3ccc4c(c3)CNC4)c2)s1`, the EC50 with Zika virus (Zika virus, Vero C1008) is 3.77 µM; in the assay on dengue virus type 2 (Dengue virus, Vero C1008), above 25 µM. The EC90 in the assay with Zika virus (Zika virus, Vero C1008, Baseline response 0 %, EC90 CI (lower) 3.392 uM, EC90 CI (upper) 11.052 uM, Hill slope 4.52, Maximum measured 126.226 %, Maximum response 100 %, Minimum measured 6.868 %, R squared 0.912) was 6.12 µM; with dengue virus type 2 (Dengue virus, Vero C1008, Maximum measured 125.186 %, Minimum measured 53.808 %), above 25 µM.

`O=C(Nc1ccc2c(c1)CNC2)c1cc(Cl)cc2ccccc12`: the EC50 with Zika virus (Zika virus, Vero C1008) was above 50 µM; with dengue virus type 2 (Dengue virus, Vero C1008), above 50 µM. The 90% effect concentration (EC90) in the assay on Zika virus (Zika virus, Vero C1008, Baseline response 0 %, Hill slope -0.363, Maximum measured 9.094 %, Maximum response 100 %, Minimum measured -16.765 %, R squared 0.057) was above 50 µM; in the assay on dengue virus type 2 (Dengue virus, Vero C1008, Baseline response 0 %, Hill slope 0.531, Maximum measured 139.444 %, Maximum response 100 %, Minimum measured 57.429 %, R squared 0.178) it was above 50 µM.

As to `O=C(Nc1cc2c(c(C3=CCS(=O)(=O)CC3)c1)CNC2)c1cc(F)cc2[nH]ncc12`, the EC50 is above 50 µM with Zika virus (Zika virus, Vero C1008) and above 25 µM in the assay on dengue virus type 2 (Dengue virus, Vero C1008). Also, the concentration for an effect of 90% (EC90) in the assay on Zika virus (Zika virus, Vero C1008, Maximum measured 6.141 %, Minimum measured -2.074 %) was above 50 µM; in the assay on dengue virus type 2 (Dengue virus, Vero C1008, Maximum measured 118.058 %, Minimum measured 98.99 %), above 25 µM.

As to `O=C(Nc1ccc2c(c1)CNC2)c1cc(F)cc(-c2cccnc2)c1`, the half-maximal effective concentration (EC50) with Zika virus (Zika virus, Vero C1008) is 6.3 µM; in the assay on dengue virus type 2 (Dengue virus, Vero C1008) it was 0.651 µM. Also, the EC90 in the assay with Zika virus (Zika virus, Vero C1008, Baseline response 0 %, Hill slope 23.488, Maximum measured 123.724 %, Maximum response 100 %, Minimum measured 1.449 %, R squared 0.923) was 6.91 µM; in the assay with dengue virus type 2 (Dengue virus, Vero C1008, Baseline response 0 %, Hill slope -0.704, Maximum measured 60.172 %, Maximum response 100 %, Minimum measured 15.025 %, R squared 0.92), above 12.5 µM.

As to `O=C(Nc1cc2c(cc1C1CC1)CNC2)c1cc(F)cc2[nH]ncc12`, the concentration giving a half-maximal response (EC50) in the assay on Zika virus (Zika virus, Vero C1008) was 7.12 µM; in the assay on dengue virus type 2 (Dengue virus, Vero C1008), above 3.12 µM. Besides, the 90% effect concentration (EC90) with Zika virus (Zika virus, Vero C1008, Baseline response 0 %, EC90 CI (lower) 6.176 uM, EC90 CI (upper) 30.178 uM, Hill slope 3.376, Maximum measured 139.956 %, Maximum response 100 %, Minimum measured 0.398 %, R squared 0.839) was 13.7 µM; in the assay on dengue virus type 2 (Dengue virus, Vero C1008, Maximum measured 158.599 %, Minimum measured 73.357 %) it was above 3.12 µM.

For `CC(C)CNC(=O)[C@H](Nc1ccc2c(c1)CNC2)c1cc(Cl)cc2[nH]ncc12`, the concentration for a half-maximal effect (EC50) in the assay with Zika virus (Zika virus, Vero C1008) is 14.2 µM; in the assay on dengue virus type 2 (Dengue virus, Vero C1008) it was above 50 µM. For the same compound, the concentration for an effect of 90% (EC90) is 45.1 µM in the assay on Zika virus (Zika virus, Vero C1008, Baseline response 0 %, EC90 CI (lower) 23.751 uM, EC90 CI (upper) 85.548 uM, Hill slope 1.9, Maximum measured 81.211 %, Maximum response 100 %, Minimum measured -3.072 %, R squared 0.886) and above 50 µM in the assay on dengue virus type 2 (Dengue virus, Vero C1008, Maximum measured 133.558 %, Minimum measured 96.187 %).

Take `N[C@H]1Cc2ccc(NC(=O)c3cccc4c3CC(=O)N4)cc2C1`: the EC50 is above 50 µM with Zika virus (Zika virus, Vero C1008) and above 50 µM with dengue virus type 2 (Dengue virus, Vero C1008). Besides, the EC90 with Zika virus (Zika virus, Vero C1008, Maximum measured 1.094 %, Minimum measured -1.183 %) is above 50 µM; with dengue virus type 2 (Dengue virus, Vero C1008, Maximum measured 137.168 %, Minimum measured 87.065 %) it was above 50 µM.

For `O=C(Nc1cc(Cl)cc(-c2cnn(Cc3ccc(C(=O)O)cc3)c2)c1)OCc1ccccc1`, the EC50 with Zika virus (Zika virus, Vero C1008) is above 50 µM; with dengue virus type 2 (Dengue virus, Vero C1008), 25 µM. Besides, the EC90 with Zika virus (Zika virus, Vero C1008, Baseline response 0 %, Hill slope 1.126, Maximum measured 43.56 %, Maximum response 100 %, Minimum measured -3.769 %, R squared 0.488) is above 50 µM; in the assay on dengue virus type 2 (Dengue virus, Vero C1008, Baseline response 0 %, Hill slope -21.178, Maximum measured 148.823 %, Maximum response 100 %, Minimum measured 10.822 %, R squared 0.564), 27.8 µM.

As to `O=C(Nc1ccc2c(c1)CNC2)c1cc(Cl)cc2[nH]c(-c3cc(C4CC4)[nH]n3)nc12`, the 50% effective concentration (EC50) was above 0.781 µM in the assay with Zika virus (Zika virus, Vero C1008) and above 3.12 µM in the assay on dengue virus type 2 (Dengue virus, Vero C1008). The EC90 in the assay on Zika virus (Zika virus, Vero C1008, Baseline response 0 %, Hill slope 2.134, Maximum measured 7.792 %, Maximum response 100 %, Minimum measured 1.889 %, R squared 0.797) is above 0.781 µM; in the assay with dengue virus type 2 (Dengue virus, Vero C1008, Maximum measured 213.616 %, Minimum measured 78.099 %), above 3.12 µM.

With `C[C@H]1C(=O)Nc2ccc(C(=O)Nc3ccc4c(c3)CNC4)cc21`, the EC50 in the assay on Zika virus (Zika virus, Vero C1008) is above 50 µM; in the assay on dengue virus type 2 (Dengue virus, Vero C1008), above 50 µM. Moreover, the EC90 with Zika virus (Zika virus, Vero C1008, Maximum measured 0.465 %, Minimum measured -1.56 %) was above 50 µM; in the assay with dengue virus type 2 (Dengue virus, Vero C1008, Maximum measured 179.475 %, Minimum measured 83.637 %) it was above 50 µM.

For `O=C(NC1CCOCC1)[C@H](Nc1ccc2c(c1)CNC2)c1cc(Cl)cc2[nH]ncc12`, the 50% effective concentration (EC50) with Zika virus (Zika virus, Vero C1008) is 16.8 µM; in the assay with dengue virus type 2 (Dengue virus, Vero C1008), above 50 µM. For the same compound, the EC90 with Zika virus (Zika virus, Vero C1008, Baseline response 0 %, Hill slope 1.579, Maximum measured 82.863 %, Maximum response 100 %, Minimum measured -0.215 %, R squared 0.968) is above 50 µM; with dengue virus type 2 (Dengue virus, Vero C1008, Maximum measured 134.779 %, Minimum measured 105.958 %), above 50 µM.

Consider `Cc1cccc(-c2nc3c(C(=O)Nc4ccc5c(c4)CNC5)cc(F)cc3[nH]2)c1`, for which the concentration for a half-maximal effect (EC50) was above 50 µM with Zika virus (Zika virus, Vero C1008) and above 50 µM with dengue virus type 2 (Dengue virus, Vero C1008). Besides, the EC90 with Zika virus (Zika virus, Vero C1008, Maximum measured 1.316 %, Minimum measured -3.721 %) was above 50 µM; in the assay on dengue virus type 2 (Dengue virus, Vero C1008, Maximum measured 188.282 %, Minimum measured 128.713 %), above 50 µM.

As to `O=C(NCC(F)F)[C@H](Nc1cc2c(cc1Br)CNC2)c1cc(Cl)cc(C2CC2)c1`, the EC50 with Zika virus (Zika virus, Vero C1008) is 0.807 µM; with dengue virus type 2 (Dengue virus, Vero C1008), above 50 µM. In addition, the EC90 was 0.907 µM in the assay with Zika virus (Zika virus, Vero C1008, Baseline response 0 %, Hill slope 18.882, Maximum measured 131.702 %, Maximum response 100 %, Minimum measured 12.911 %, R squared 0.859) and above 50 µM in the assay on dengue virus type 2 (Dengue virus, Vero C1008, Maximum measured 177.59 %, Minimum measured 74.788 %).

In the case of `COc1cc(-c2cc(NC(=O)c3cc(F)cc4[nH]ncc34)cc3c2CNC3)ccn1`, the concentration giving a half-maximal response (EC50) with Zika virus (Zika virus, Vero C1008) was 3.92 µM; in the assay on dengue virus type 2 (Dengue virus, Vero C1008) it was above 50 µM. The EC90 with Zika virus (Zika virus, Vero C1008, Baseline response 0 %, EC90 CI (lower) 3.129 uM, EC90 CI (upper) 14.718 uM, Hill slope 4.011, Maximum measured 135.364 %, Maximum response 100 %, Minimum measured -0.295 %, R squared 0.873) is 6.79 µM; with dengue virus type 2 (Dengue virus, Vero C1008, Baseline response 0 %, Hill slope 0.386, Maximum measured 113.678 %, Maximum response 100 %, Minimum measured 63.234 %, R squared 0.283), above 50 µM.

As for `O=C(Nc1ccc2c(c1)CNC2)c1cc(Cl)cc2c1cnn2C[C@H]1CCCO1`, the EC50 with Zika virus (Zika virus, Vero C1008) is 6.36 µM; with dengue virus type 2 (Dengue virus, Vero C1008) it was above 50 µM. Further, the EC90 was 6.75 µM with Zika virus (Zika virus, Vero C1008, Baseline response 0 %, Hill slope 36.566, Maximum measured 122.907 %, Maximum response 100 %, Minimum measured 2.24 %, R squared 0.938) and above 50 µM with dengue virus type 2 (Dengue virus, Vero C1008, Baseline response 0 %, Hill slope 0.931, Maximum measured 200.765 %, Maximum response 100 %, Minimum measured 63.333 %, R squared 0.208).

For the compound `CCOCCNC(=O)[C@H](Nc1ccc2c(c1)CNC2)c1cc(Cl)cc2[nH]ncc12`, the EC50 was 39.6 µM in the assay with Zika virus (Zika virus, Vero C1008) and above 50 µM in the assay on dengue virus type 2 (Dengue virus, Vero C1008). The EC90 with Zika virus (Zika virus, Vero C1008, Baseline response 0 %, Hill slope 1.597, Maximum measured 58.987 %, Maximum response 100 %, Minimum measured -2.742 %, R squared 0.989) was above 50 µM; in the assay on dengue virus type 2 (Dengue virus, Vero C1008, Maximum measured 134.278 %, Minimum measured 95.519 %), above 50 µM.

For the origin of these results see ChEMBL document CHEMBL5661943, “ASAP - In vitro antiviral effect” (2024).
